According to patent US11331369B2, “Endoparasitic depsipeptides” (Zoetis Services LLC, priority 2017, dated 2022):
Counter-ions that a name gives are not always drawn.

Tested on: third stage larvae of Haemonchus contortus
Test: Haemonchus contortus L3 (HcL3) Assay
Assay type: cell-based
Conditions: 96 h, read-out: HcL3 Minimum Effective Dose (MED)

| SMILES | minimal effective concentration |
| --- | --- |
| CC(C)C[C@H]1C(=O)O[C@H](Cc2cccc(Cn3cccn3)c2)C(=O)N(C)[C@@H](CC(C)C)C(=O)O[C@H](C)C(=O)N(C)[C@@H](CC(C)C)C(=O)O[C@H](Cc2ccc(Cn3cccn3)cc2)C(=O)N(C)[C@@H](CC(C)C)C(=O)O[C@H](C)C(=O)N1C [Example 3-1, (3S,6R,9S,12R,15S,18R,21S,24R)-3,9,15,21-tetraisobutyl-4,6,10,16,18,22-hexamethyl-12-[[3-(pyrazol-1-ylmethyl)phenyl]methyl]-24-[[4-(pyrazol-1-ylmethyl)phenyl]methyl]-1,7,13,19-tetraoxa-4,10,16, 22-tetrazacyclotetracosane-2,5,8,11,14,17,20,23-octaone] | 1 to 10 µM |
| CC(C)C[C@H]1C(=O)O[C@H](Cc2ccc(CN3CCOCC3)cc2)C(=O)N(C)[C@@H](CC(C)C)C(=O)O[C@H](C)C(=O)N(C)[C@@H](CC(C)C)C(=O)O[C@H](Cc2ccc(CN3CCOCC3)cc2)C(=O)N(C)[C@@H](CC(C)C)C(=O)O[C@H](C)C(=O)N1C [Example 9-1, (3S,6R,9S,12R,15S,18R,21S,24R)-3,9,15,21-tetraisobutyl-4,6,10,16,18,22-hexamethyl-12,24-bis(4-(morpholinomethyl)benzyl)-1,7,13,19-tetraoxa-4,10,16,22-tetraazacyclotetracosan-2,5,8,11,14,17,20,23-octaone] | 1 to 10 µM |
| CC(C)C[C@H]1C(=O)O[C@H](Cc2ccc(Cn3cc(C(N)=O)cn3)cc2)C(=O)N(C)[C@@H](CC(C)C)C(=O)O[C@H](C)C(=O)N(C)[C@@H](CC(C)C)C(=O)O[C@H](Cc2ccccc2)C(=O)N(C)[C@@H](CC(C)C)C(=O)O[C@H](C)C(=O)N1C [Example 2-53, 1-(4-(((2R,5S,8R,11S,14R,17S,20R,23S)-14-benzyl-5,11,17,23-tetraisobutyl-4,8,10,16,20,22-hexamethyl-3,6,9,12,15,18,21,24-octaoxo-1,7,13,19-tetraoxa-4,10,16,22-tetraazacyclotetracosan-2-yl)methyl)benzyl)-1H-pyrazole-4-carboxamide] | 1 to 10 µM |
| CC(C)C[C@H]1C(=O)O[C@H](Cc2ccc(C(C)(C)n3cc(Br)cn3)cc2)C(=O)N(C)[C@@H](CC(C)C)C(=O)O[C@H](C)C(=O)N(C)[C@@H](CC(C)C)C(=O)O[C@H](Cc2ccc(C(C)(C)n3cc(Br)cn3)cc2)C(=O)N(C)[C@@H](CC(C)C)C(=O)O[C@H](C)C(=O)N1C [Example 1c-11, (3S,6R,9S,12R,15S,18R,21S,24R)-6,18-bis(4-(2-(4-bromo-1H-pyrazol-1-yl)propan-2-yl)benzyl)-3,9,15,21-tetraisobutyl-4,10,12,16,22,24-hexamethyl-1,7,13,19-tetraoxa-4,10,16,22-tetraazacyclotetracosan-2,5,8,11,14,17,20,23-octaone] | ≤ 1 µM |
| CC(C)C[C@H]1C(=O)O[C@H](Cc2ccc(CN3CCNc4ccccc43)cc2)C(=O)N(C)[C@@H](CC(C)C)C(=O)O[C@H](C)C(=O)N(C)[C@@H](CC(C)C)C(=O)O[C@H](Cc2ccc(CN3CCNc4ccccc43)cc2)C(=O)N(C)[C@@H](CC(C)C)C(=O)O[C@H](C)C(=O)N1C [Example 9-69, (3S,6R,9S,12R,15S,18R,21S,24R)-6,18-bis[[4-(3,4-dihydro-2H-quinoxalin-1-ylmethyl)phenyl]methyl]-3,9,15,21-tetraisobutyl-4,10,12,16,22,24-hexamethyl-1,7,13,19-tetraoxa-4,10,16,22-tetrazacyclotetracosane-2,5,8,11,14,17,20,23-octaone dihydrochloride] | 10 to 100 µM |
| CC(C)C[C@H]1C(=O)O[C@H](Cc2ccc(Cn3cc(N4CCOCC4)cn3)cc2)C(=O)N(C)[C@@H](CC(C)C)C(=O)O[C@H](C)C(=O)N(C)[C@@H](CC(C)C)C(=O)O[C@H](Cc2ccc(Cn3cc(N4CCOCC4)cn3)cc2)C(=O)N(C)[C@@H](CC(C)C)C(=O)O[C@H](C)C(=O)N1C [Example 1b-179, (3S,6R,9S,12R,15S,18R,21S,24R)-3,9,15,21-tetraisobutyl-4,6,10,16,18,22-hexamethyl-12,24-bis(4-((4-morpholino-1H-pyrazol-1-yl)methyl)benzyl)-1,7,13,19-tetraoxa-4,10,16,22-tetraazacyclotetracosan-2,5,8,11,14,17,20,23-octaone] | 1 to 10 µM |
| CC(C)C[C@H]1C(=O)O[C@H](Cc2ccc(C(C)(C)n3cc([N+](=O)[O-])cn3)cc2)C(=O)N(C)[C@@H](CC(C)C)C(=O)O[C@H](C)C(=O)N(C)[C@@H](CC(C)C)C(=O)O[C@H](Cc2ccc(C(C)(C)n3cc([N+](=O)[O-])cn3)cc2)C(=O)N(C)[C@@H](CC(C)C)C(=O)O[C@H](C)C(=O)N1C [Example 1c-7, (3S,6R,9S,12R,15S,18R,21S,24R)-3,9,15,21-tetraisobutyl-4,6,10,16,18,22-hexamethyl-12,24-bis(4-(2-(4-nitro-1H-pyrazol-1-yl)propan-2-yl)benzyl)-1,7,13,19-tetraoxa-4,10,16,22-tetraazacyclotetracosan-2,5,8,11,14,17,20,23-octaone] | ≤ 1 µM |
| Cc1cnn(Cc2ccc(C[C@H]3OC(=O)[C@H](CC(C)C)N(C)C(=O)[C@@H](C)OC(=O)[C@H](CC(C)C)N(C)C(=O)[C@@H](Cc4cccc(Cn5cc(C)cn5)c4)OC(=O)[C@H](CC(C)C)N(C)C(=O)[C@@H](C)OC(=O)[C@H](CC(C)C)N(C)C3=O)cc2)c1 [Example 3-2, (3S,6R,9S,12R,15S,18R,21S,24R)-3,9,15,21-tetraisobutyl-4,6,10,16,18,22-hexamethyl-12-[[3-[(4-methylpyrazol-1-yl)methyl]phenyl]methyl]-24-[[4-[(4-methylpyrazol-1-yl)methyl]phenyl]methyl]-1,7,13,19-tetraoxa-4,10,16,22-tetrazacyclotetracosane-2,5,8,11,14,17,20,23-octaone] | 1 to 10 µM |
| CC(C)C[C@H]1C(=O)O[C@H](Cc2ccc(Cn3nccc3C(F)F)cc2)C(=O)N(C)[C@@H](CC(C)C)C(=O)O[C@H](C)C(=O)N(C)[C@@H](CC(C)C)C(=O)O[C@H](Cc2ccc(Cn3nccc3C(F)F)cc2)C(=O)N(C)[C@@H](CC(C)C)C(=O)O[C@H](C)C(=O)N1C [Example 1b-211, (3S,6R,9S,12R,15S,18R,21S,24R)-6,18-bis(4-((5-(difluoromethyl)-1H-pyrazol-1-yl)methyl)benzyl)-3,9,15,21-tetraisobutyl-4,10,12,16,22,24-hexamethyl-1,7,13,19-tetraoxa-4,10,16,22-tetraazacyclotetracosan-2,5,8,11,14,17,20,23-octaone] | ≤ 1 µM |
| CC(C)C[C@H]1C(=O)O[C@H](Cc2ccc(CN3CCOCC3)cc2)C(=O)N(C)[C@@H](CC(C)C)C(=O)O[C@H](C)C(=O)N(C)[C@@H](CC(C)C)C(=O)O[C@H](Cc2ccccc2)C(=O)N(C)[C@@H](CC(C)C)C(=O)O[C@H](C)C(=O)N1C [Example 10-6, (3S,6R,9S,12R,15S,18R,21S,24R)-6-benzyl-3,9,15,21-tetraisobutyl-4,10,12,16,22,24-hexamethyl-18-(4-(morpholinomethyl)benzyl)-1,7,13,19-tetraoxa-4,10,16,22-tetraazacyclotetracosan-2,5,8,11,14,17,20,23-octaone] | 1 to 10 µM |
| CC(C)C[C@H]1C(=O)O[C@H](Cc2cccc(Cn3cc(Br)cn3)c2)C(=O)N(C)[C@@H](CC(C)C)C(=O)O[C@H](C)C(=O)N(C)[C@@H](CC(C)C)C(=O)O[C@H](Cc2ccc(Cn3cc(Br)cn3)cc2)C(=O)N(C)[C@@H](CC(C)C)C(=O)O[C@H](C)C(=O)N1C [Example 3-3, (3S,6R,9S,12R,15S,18R,21S,24R)-6-[[3-[(4-bromopyrazol-1-yl)methyl]phenyl]methyl]-18-[[4-[(4-bromopyrazol-1-yl)methyl]phenyl]methyl]-3,9,15,21-tetraisobutyl-4,10,12,16,22,24-hexamethyl-1,7,13,19-tetraoxa-4,10,16,22-tetrazacyclotetracosane-2,5,8,11,14,17,20,23-octaone] | 1 to 10 µM |
| CC(C)C[C@H]1C(=O)O[C@H](Cc2ccc(Cn3cc(O)cn3)cc2)C(=O)N(C)[C@@H](CC(C)C)C(=O)O[C@H](C)C(=O)N(C)[C@@H](CC(C)C)C(=O)O[C@H](Cc2ccccc2)C(=O)N(C)[C@@H](CC(C)C)C(=O)O[C@H](C)C(=O)N1C [Example 2-30, (3S,6R,9S,12R,15S,18R,21S,24R)-6-benzyl-18-(4-((4-hydroxy-1H-pyrazol-1-yl)methyl)benzyl)-3,9,15,21-tetraisobutyl-4,10,12,16,22,24-hexamethyl-1,7,13,19-tetraoxa-4,10,16,22-tetraazacyclotetracosan-2,5,8,11,14,17,20,23-octaone] | 1 to 10 µM |
| COc1cnn(Cc2ccc(C[C@H]3OC(=O)[C@H](CC(C)C)N(C)C(=O)[C@@H](C)OC(=O)[C@H](CC(C)C)N(C)C(=O)[C@@H](Cc4cccc(Cn5cc(OC)cn5)c4)OC(=O)[C@H](CC(C)C)N(C)C(=O)[C@@H](C)OC(=O)[C@H](CC(C)C)N(C)C3=O)cc2)c1 [Example 3-27, (3S,6R,9S,12R,15S,18R,21S,24R)-3,9,15,21-tetraisobutyl-6-(3-((4-methoxy-1H-pyrazol-1-yl)methyl)benzyl)-18-(4-((4-methoxy-1H-pyrazol-1-yl)methyl)benzyl)-4,10,12,16,22,24-hexamethyl-1,7,13,19-tetraoxa-4,10,16,22-tetraazacyclotetracosan-2,5,8,11,14,17,20,23-octaone] | 1 to 10 µM |
| Cc1cnn(C(C)(C)c2ccc(C[C@H]3OC(=O)[C@H](CC(C)C)N(C)C(=O)[C@@H](C)OC(=O)[C@H](CC(C)C)N(C)C(=O)[C@@H](Cc4ccc(C(C)(C)n5cc(C)cn5)cc4)OC(=O)[C@H](CC(C)C)N(C)C(=O)[C@@H](C)OC(=O)[C@H](CC(C)C)N(C)C3=O)cc2)c1 [Example 1c-9, (3S,6R,9S,12R,15S,18R,21S,24R)-3,9,15,21-tetraisobutyl-4,6,10,16,18,22-hexamethyl-12,24-bis(4-(2-(4-methyl-1H-pyrazol-1-yl)propan-2-yl)benzyl)-1,7,13,19-tetraoxa-4,10,16,22-tetraazacyclotetracosan-2,5,8,11,14,17,20,23-octaone] | ≤ 1 µM |
